In ChEMBL document CHEMBL1132200, “Novel adrenoceptor antagonists with a tricyclic pyrrolodipyridazine skeleton” (J Med Chem, 1999):

Key:
[1] = biological target: T1, Alpha-1B adrenergic receptor (Homo sapiens, UniProt P35368); test: The compound was tested for binding affinity on [3H]- prazosin as specific ligand on Human cloned alpha-1B adrenergic receptor in CHO cells; type: cell-based
T1 sequence (P35368 whole entry): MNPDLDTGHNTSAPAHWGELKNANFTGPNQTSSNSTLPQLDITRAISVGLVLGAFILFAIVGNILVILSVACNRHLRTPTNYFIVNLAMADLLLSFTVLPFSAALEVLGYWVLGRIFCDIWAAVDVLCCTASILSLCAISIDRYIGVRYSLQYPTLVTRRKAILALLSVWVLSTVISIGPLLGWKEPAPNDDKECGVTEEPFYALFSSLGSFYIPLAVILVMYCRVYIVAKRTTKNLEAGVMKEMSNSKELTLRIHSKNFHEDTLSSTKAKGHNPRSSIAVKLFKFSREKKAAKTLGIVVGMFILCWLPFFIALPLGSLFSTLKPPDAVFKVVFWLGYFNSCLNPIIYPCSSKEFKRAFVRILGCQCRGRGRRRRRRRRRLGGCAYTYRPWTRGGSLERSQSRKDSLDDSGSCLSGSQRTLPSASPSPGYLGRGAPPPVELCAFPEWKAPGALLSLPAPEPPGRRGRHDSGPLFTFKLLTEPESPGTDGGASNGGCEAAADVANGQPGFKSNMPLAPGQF

[2] = Ratio of the binding affinities against 5-HT1A and alpha-1-adrenoceptor from rat brain membranes.; type: cell membranes; conditions: Membrane
[3] = biological target: T2, Alpha-1D adrenergic receptor (Homo sapiens, UniProt P25100); test: The compound was tested for binding affinity on [3H]- prazosin as specific ligand on Human cloned alpha-1D adrenergic receptor in CHO cells; type: cell-based
T2 sequence (P25100 whole entry): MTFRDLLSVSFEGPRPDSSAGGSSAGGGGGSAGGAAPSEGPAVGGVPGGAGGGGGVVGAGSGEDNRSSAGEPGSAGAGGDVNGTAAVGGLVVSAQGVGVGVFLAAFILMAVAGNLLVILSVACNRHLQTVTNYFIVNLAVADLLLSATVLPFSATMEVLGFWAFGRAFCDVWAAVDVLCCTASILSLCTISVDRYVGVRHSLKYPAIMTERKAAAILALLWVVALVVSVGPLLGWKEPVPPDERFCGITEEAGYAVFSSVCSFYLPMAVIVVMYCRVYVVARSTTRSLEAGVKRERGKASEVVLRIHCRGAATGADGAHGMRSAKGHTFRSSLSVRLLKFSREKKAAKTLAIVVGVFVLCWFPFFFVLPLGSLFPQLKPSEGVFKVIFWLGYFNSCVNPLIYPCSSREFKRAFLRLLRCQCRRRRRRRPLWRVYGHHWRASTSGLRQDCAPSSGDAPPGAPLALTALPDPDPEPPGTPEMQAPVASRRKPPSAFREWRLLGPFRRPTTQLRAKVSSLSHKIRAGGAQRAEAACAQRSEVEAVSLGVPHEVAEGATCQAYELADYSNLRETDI

[4] = biological target: T3, Adrenergic receptor alpha-1 (Rattus norvegicus, UniProt P15823+P23944+P43140); test: The compound was tested for binding affinity on [3H]- prazosin as specific ligand on alpha-1 adrenergic receptor cells in rat cerebral cortex; type: tissue-based
T3 sequence (P15823 whole entry): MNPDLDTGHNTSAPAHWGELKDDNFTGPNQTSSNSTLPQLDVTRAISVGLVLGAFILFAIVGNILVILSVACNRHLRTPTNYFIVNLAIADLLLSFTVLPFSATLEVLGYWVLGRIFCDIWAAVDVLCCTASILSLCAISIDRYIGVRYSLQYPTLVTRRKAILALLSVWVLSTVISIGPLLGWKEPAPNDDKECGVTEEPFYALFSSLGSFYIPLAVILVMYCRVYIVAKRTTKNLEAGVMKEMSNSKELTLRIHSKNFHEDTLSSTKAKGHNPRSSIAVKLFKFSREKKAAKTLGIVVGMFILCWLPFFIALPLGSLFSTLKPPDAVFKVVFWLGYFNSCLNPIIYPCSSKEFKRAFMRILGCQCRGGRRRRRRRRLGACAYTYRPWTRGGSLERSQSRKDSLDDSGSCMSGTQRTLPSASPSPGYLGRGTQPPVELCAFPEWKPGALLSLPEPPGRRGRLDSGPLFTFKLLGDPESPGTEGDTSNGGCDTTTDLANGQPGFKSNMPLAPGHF
T3 sequence (P23944 whole entry): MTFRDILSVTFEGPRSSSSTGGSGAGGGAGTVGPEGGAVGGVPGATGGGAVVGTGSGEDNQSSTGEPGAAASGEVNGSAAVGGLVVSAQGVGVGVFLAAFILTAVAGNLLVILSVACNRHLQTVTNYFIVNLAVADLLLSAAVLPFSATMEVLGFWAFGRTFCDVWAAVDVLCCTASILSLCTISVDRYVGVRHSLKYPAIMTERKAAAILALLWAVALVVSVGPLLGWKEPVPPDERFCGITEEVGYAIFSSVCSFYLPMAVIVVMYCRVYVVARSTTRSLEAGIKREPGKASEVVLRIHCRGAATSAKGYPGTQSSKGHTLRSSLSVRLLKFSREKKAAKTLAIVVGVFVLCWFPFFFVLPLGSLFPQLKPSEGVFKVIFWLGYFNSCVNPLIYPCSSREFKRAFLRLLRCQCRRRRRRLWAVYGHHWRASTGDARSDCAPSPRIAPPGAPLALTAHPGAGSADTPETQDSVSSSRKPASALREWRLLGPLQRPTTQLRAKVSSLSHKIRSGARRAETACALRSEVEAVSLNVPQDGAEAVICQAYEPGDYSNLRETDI
T3 sequence (P43140 whole entry): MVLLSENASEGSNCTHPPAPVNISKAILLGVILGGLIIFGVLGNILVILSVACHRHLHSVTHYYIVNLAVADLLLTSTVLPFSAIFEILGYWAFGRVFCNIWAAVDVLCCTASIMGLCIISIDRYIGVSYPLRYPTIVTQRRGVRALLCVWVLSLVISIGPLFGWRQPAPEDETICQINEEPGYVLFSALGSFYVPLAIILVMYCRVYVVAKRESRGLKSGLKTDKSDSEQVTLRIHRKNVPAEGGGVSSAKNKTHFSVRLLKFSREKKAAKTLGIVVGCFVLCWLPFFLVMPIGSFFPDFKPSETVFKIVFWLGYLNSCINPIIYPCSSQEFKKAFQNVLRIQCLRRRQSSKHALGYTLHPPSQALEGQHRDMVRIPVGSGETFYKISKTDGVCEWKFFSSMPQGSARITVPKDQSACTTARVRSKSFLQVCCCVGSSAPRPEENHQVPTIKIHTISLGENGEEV

[5] = biological target: T4, Alpha-1A adrenergic receptor (Homo sapiens, UniProt P35348); test: The compound was tested for binding affinity on [3H]- prazosin as specific ligand on Human cloned alpha-1A adrenergic receptor expressed in CHO cells; type: cell-based
T4 sequence (P35348 whole entry): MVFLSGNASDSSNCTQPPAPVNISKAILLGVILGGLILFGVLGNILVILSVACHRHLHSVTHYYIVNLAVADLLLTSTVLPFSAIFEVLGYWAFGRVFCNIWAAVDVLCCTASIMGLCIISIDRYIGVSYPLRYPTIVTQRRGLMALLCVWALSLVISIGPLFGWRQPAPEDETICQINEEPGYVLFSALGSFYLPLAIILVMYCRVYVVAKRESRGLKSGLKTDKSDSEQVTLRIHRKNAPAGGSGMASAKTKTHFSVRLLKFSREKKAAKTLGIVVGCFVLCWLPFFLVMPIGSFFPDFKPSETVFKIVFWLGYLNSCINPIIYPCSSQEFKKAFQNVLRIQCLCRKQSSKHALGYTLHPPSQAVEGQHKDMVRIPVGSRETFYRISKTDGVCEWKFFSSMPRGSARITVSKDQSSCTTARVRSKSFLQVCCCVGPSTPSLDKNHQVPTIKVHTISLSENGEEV

[6] = biological target: T5, 5-hydroxytryptamine receptor 1A (Rattus norvegicus, UniProt P19327); test: The compound was tested for binding affinity on [3H]8-OH-DPAT as specific ligand on 5-hydroxytryptamine 1A receptor in rat hippocampus; type: tissue-based
T5 sequence (P19327 whole entry): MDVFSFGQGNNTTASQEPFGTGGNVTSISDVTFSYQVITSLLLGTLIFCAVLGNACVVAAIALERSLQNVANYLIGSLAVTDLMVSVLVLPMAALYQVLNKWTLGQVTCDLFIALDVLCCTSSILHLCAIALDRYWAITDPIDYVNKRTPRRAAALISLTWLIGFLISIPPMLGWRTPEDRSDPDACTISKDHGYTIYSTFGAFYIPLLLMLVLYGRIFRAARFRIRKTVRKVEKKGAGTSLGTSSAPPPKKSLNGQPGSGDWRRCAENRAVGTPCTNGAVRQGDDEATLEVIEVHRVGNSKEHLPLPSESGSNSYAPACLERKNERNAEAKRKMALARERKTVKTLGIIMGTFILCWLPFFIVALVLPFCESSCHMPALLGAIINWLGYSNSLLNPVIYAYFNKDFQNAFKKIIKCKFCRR

Ki [1] [nM] | Ratio [2] | Ki [3] [nM] | Ki [4] [nM] | Ki [5] [nM] | Ki [6] [nM] | SMILES
22.1 | 5.01 | 0.93 | 24.6 | 4.75 | 123 | COc1ccccc1N1CCN(CCn2nc(-c3ccccc3)c(C(C)=O)c(N)c2=O)CC1
13.6 | 1.03 | 11.9 | 54.6 | 5.93 | 56.5 | Cn1nc(Cl)c2cn3nc(NCCN4CCN(c5ccccc5Cl)CC4)ccc3c2c1=O
15.6 | 0.16 | 6.56 | 129.2 | 1.93 | 21.2 | Cn1nc(Cl)c2cn3nc(NCCN4CCN(c5ccccc5)CC4)ccc3c2c1=O
15.2 | 0.22 | 3.04 | 73.3 | 1.1 | 16.3 | COc1ccccc1N1CCN(CCNc2ccc3c4c(=O)n(C)nc(Cl)c4cn3n2)CC1
